# Experimental data as given in US8946275B2, “Treatment of cancer using hypoxia activated prodrugs” (Threshold Pharmaceuticals, Inc., priority 2008, dated 2015).
# Where two headings read alike, the source gives them in different places.
# Key:
# H460 NSCLC cells = test: H460 ectopic xenograft, TH-302/pemetrexed dosing schedules; assay type: in vivo, nude mice; conditions: single agent, TH-302 100 mg/kg ip Q7Dx2 or PMX 150 mg/kg ip Q7Dx2
# Method: (§1) Anti-tumor activity was evaluated by tumor growth delay (TGD) and tumor growth inhibition (TGI). Body weight change, gross and microscopic assessment of tissue changes, and hematologic assays served for toxicity assessment. Testing in these models was conducted generally as follows. 1×10^6 (H460 human non-small cell lung cancer or HT1080 human fibrosarcoma cells) or 3×10^6 (PC-3 human prostate cancer cells) were implanted in the subcutaneous space of the right flank to obtain ectopic xenograft models. Randomization and dosing was initiated when tumors reached a certain size (100-150 mm^3). API grade of TH-302 was used in all experiments while docetaxel, gemcitabine, cisplatin, pemetrexed, and doxorubicin were purchased from commercial sources.
# (§2) The H460 cells were prepared in 30% Matrigel and 70%. RPMI1640. Mice were anesthetized by isoflurane and were implanted subcutaneously with 1×10^6 cells (in 200 μl) at the flank position. We selected 110 mice bearing similar size tumors (˜100 mm^3) for the study. Mice bearing similar tumor size were randomly assigned into different groups. Treatment started on day 1 (7 days after tumor implantation) except as noted. TH-302 was administered intraperitoneally (IP) at 150 mg/kg, and docetaxel was administered intravenously (IV) at 10 mg/kg. Animals were observed daily and tumor measurements and body weights recorded twice weekly.
# In a study conducted substantially as described above except the cells implanted were H460 NSCLC cells and 1×10^6 cells were implanted and mice were randomized into separate groups when their tumors reached ˜100 mm^3 and the chemotherapeutic employed was pemetrexed at a dose of 150 mg/kg given once a week (Q7D) for two weeks IP and the TH-302 was given at 100 mg/kg given once a week (Q7D) for two weeks IP. […]
# [1] = test system: HT1080 human fibrosarcoma cells; test: HT1080 ectopic xenograft, TH-302/doxorubicin dosing schedules; assay type: in vivo, nude mice; conditions: single agent, TH-302 100 mg/kg ip 1/wkx2wks or Dox 4 mg/kg iv 1/wkx2wks
# Method: as §1, §2
# In a study conducted substantially as described above except the cells implanted were HT1080 human fibrosarcoma cells and 1×10^6 cells were implanted and mice were randomized into separate groups when their […]
# H460 NSCLC = test: H460 ectopic tumor model, TH-302 with carboplatin; assay type: in vivo, nude mice
# Method: Anti-tumor activity was evaluated by tumor growth inhibition (TGI) and tumor growth delay (TGD). Body weight change, gross and microscopic assessment of tissue changes, and hematologic assays served for toxicity assessment.
# Testing in these models was conducted generally as follows. 1×10^6 H460 human non-small cell lung cancer or HT1080 human fibrosarcoma cells were implanted in the subcutaneous space of the right flank to obtain ectopic xenograft models. For the orthotopic pancreatic model, red-fluorescent protein (RFP) expressing MIA PaCa2 tumors were surgically implanted on the surface of the pancreas. The prostate metastatic model was created by the intraventricular injection of 3×10^6 luciferase-expressing PC-3 cells. […] API grade of TH-302 was used in all experiments while docetaxel, gemcitabine, doxorubicin and pemetrexed were purchased from commercial sources.
# Inhibition of tumor growth after administration of TH-302 and carboplatin was greater than for either drug individually in an ectopic tumor model using H460 cells.
# Solubility of TH-302 = assay type: physicochemical; conditions: organic solvent or mixture
# metastatic melanoma = test: TH-302 monotherapy in patients with metastatic melanoma; assay type: in vivo, human
# Method: As noted, TH-302 has shown benefit in patients with metastatic melanoma. The historical response rate in first-line metastatic melanoma is about 10%, so the results of treatment with TH-302 are quite remarkable. Eleven subjects with metastatic melanoma have been treated with TH-302 monotherapy at initial doses of 575 mg/m^2 to 670 mg/m^2 as part of a 3 consecutive week dosing regimen repeated every 4 weeks. RECIST tumor assessments have been performed for eight subjects. […] Four of the eight subjects continued on-study for additional dosing cycles. Two of the three subjects with a partial response continued on-study through at least Cycle 3 and Cycle 7. The other subject discontinued with clinical deterioration associated with neurological decline from brain metastases.
# A patient suffering from a primary melanoma (a skin cancer) that had metastasized to liver and lung was treated as follows. TH-302 was administered to the patient at an amount of 670 mg/m^2 using a 4 week (28 day) dosing cycle: TH-302 was administered once every week for 3 weeks, on days 1, 8, and 15, followed by a week of no TH-302 administration. The patient was administered 2 cycles of TH-302 and assessed by a CT scan.
# Enrollment in the study was expanded at the MTD in patients with metastatic melanoma. TH-302 was administered intravenously over 30-60 minutes on Days 1, 8 and 15 of a 28-day cycle. Eligible patients had ECOG≦1, at least one target lesion by RECIST, and acceptable hematologic, liver, and renal function. Patients with symptomatic brain metastases were excluded unless previously treated and well controlled for at least 3 months. Nine patients with metastatic melanoma have been treated in the study. The median age was 70 (range 23-78) with 5 females and 4 males and ECOG 0/1 in 4/5 patients. […] Metastatic sites included liver in 7 patients and lung in 6 patients. All patients had received at least one prior systemic chemotherapeutic regimen. Two serious adverse events, seizures and ascites, were reported; neither was considered related to study drug. Skin adverse events were reported in 8 patients and mucosal adverse events were reported in 4 patients including one grade 3 event. Myelosuppression was not significant, with one event of grade 3/4 neutropenia and anemia and no events of grade 3/4 thrombocytopenia. Eight patients have had RECIST tumor assessments.
# [2] = Carboplatin 20 mg/kg IV Q7Dx2, TH-302 100 mg/kg IP Q7Dx2, alone or combined
# [3] = TH-302 150 mg/kg IP Q7Dx2, alone or + Carboplatin 20 mg/kg IV Q7Dx2
# [4] = 575-670 mg/m^2, weekly x3 every 4 weeks, eight subjects assessed
# [5] = expansion at MTD, 8 patients assessed
# [6] = one patient, 670 mg/m^2, 2 cycles, CT scan
compound,measurement,setting,value
"Cn1c(COP(=O)(NCCBr)NCCBr)cnc1[N+](=O)[O-] [TH-302, (2-bromoethyl)({[(2-bromoethyl)amino][(2-nitro-3-methylimidazol-4-yl)methoxy]phosphoryl})amine]",Days to 500 mm^3,H460 NSCLC cells,19 days
same,Days to 1000 mm^3,H460 NSCLC cells,30 days
same,T/C,H460 NSCLC cells,49.7%
same,"TGD500, Days (vs. vehicle)",H460 NSCLC cells,7 days
same,"TGD1000, Days (vs. vehicle)",H460 NSCLC cells,9 days
same,TGI,H460 NSCLC cells,50.3%
same,Tn (tumor volume on Day n),H460 NSCLC cells,598.34
same,Days to 500 mm^3,[1],22 days
same,T/C,[1],25.3%
same,"TGD500, Days (vs. vehicle)",[1],10 days
same,TGI,[1],74.7%
same,Tn (tumor volume on Day n),[1],334.66
same,Days to 500 mm^3,H460 NSCLC; [2],13.5 days
same,T/C,H460 NSCLC; [2],56.1%
same,"TGD500, Days (vs. vehicle)",H460 NSCLC; [2],4 days
same,TGI,H460 NSCLC; [2],43.9%
same,Tn (tumor volume on Day n),H460 NSCLC; [2],706.0
same,Days to 500 mm^3,H460 NSCLC; [3],14.5 days
same,T/C,H460 NSCLC; [3],50.3%
same,"TGD500, Days (vs. vehicle)",H460 NSCLC; [3],5 days
same,TGI,H460 NSCLC; [3],49.7%
same,Tn (tumor volume on Day n),H460 NSCLC; [3],641.6
same,solubility,"Solubility of TH-302; ethanol, even at higher temperatures, read-out: Highest solubility of TH-302 in ethanol",~80 mg/mL
same,solubility,"Solubility of TH-302; ethanol/TWEEN 80 or ethanol/TWEEN 80/DMA, depending on the ratio, read-out: Solubility of TH-302",≤ 300 mg/mL
same,Partial responses (RECIST),metastatic melanoma; [4],Three of the eight subjects
same,Stable disease (RECIST),metastatic melanoma; [4],three of eight subjects
same,RECIST partial responses,"metastatic melanoma; expansion at MTD, Days 1, 8, 15 of 28-day cycle, 8 patients assessed",37%
same,Ongoing stable disease after 2 months of therapy,metastatic melanoma; [5],38%
same,Progressive disease,metastatic melanoma; [5],25%
same,Mucosal adverse events,metastatic melanoma; nine patients treated,4 patients
same,Skin adverse events,metastatic melanoma; nine patients treated,8 patients
same,Decrease in SLD of target lesions,metastatic melanoma; [6],53%
same,Reduction in area of cancer in lung and liver,metastatic melanoma; [6],over 50%
